According to patent US6316472A, “Heterosubstituted pyridine derivatives as PDE 4 inhibitors” (Merck Frosst Canada & Co., priority 2000, dated 2001):

Target: T1, GST-Met 248 PDE 4a (Homo sapiens, UniProt P27815)
T1 construct: human recombinant phosphodiesterase IVa (met-248); made in house; host or cells: baculovirus/Sf-9 insect cells
Assay: SPA based PDE Activity Assay (hydrolysis of cAMP to AMP)
Format: biochemical
Settings: 100 nM cAMP; purified GST fusion protein of human recombinant phosphodiesterase IVa (met-248), baculovirus/Sf-9; 30° C., 10 min
Procedure: SPA based PDE Activity Assay Protocol
Compounds which inhibit the hydrolysis of cAMP to AMP by the type-IV cAMP-specific phosphodiesterases were screened in 96-well plate format as follows:
In a 96 well-plate at 30° C. was added the test compound (dissolved in 2 μl DMSO), […] of substrate buffer containing [2,8-^3 H] adenosine 3',5'-cyclic phosphate (cAMP, 100 nM to 50 μM), 10 mM MgCl2, 1 mM EDTA, 50 mM Tris, pH 7.5. The reaction was initiated by the addition of […] of human recombinant PDE-IV (the amount was controlled so that ~10% product was formed in 10 min.). The reaction was stopped after 10 min. by the addition of 1 mg of PDE-SPA beads (Amersham). The product AMP generated was quantified on a Microbeta 96-well plate counter. The signal in the absence of enzyme was defined as the background. 100% activity was defined as the signal detected in the presence of enzyme and DMSO with the background subtracted. Percentage of inhibition was calculated accordingly. IC50 value was approximated with a non-linear regression fit using the standard 4-parameter/multiple binding sites equation from a ten point titration.
IC50 values shown in Table 7 were determined with 100 nM cAMP using the purified GST fusion protein of the human recombinant phosphodiesterase IVa (met-248) produced from a baculovirus/Sf-9 expression system.

T1 sequence (P27815 248-886 limits assumed): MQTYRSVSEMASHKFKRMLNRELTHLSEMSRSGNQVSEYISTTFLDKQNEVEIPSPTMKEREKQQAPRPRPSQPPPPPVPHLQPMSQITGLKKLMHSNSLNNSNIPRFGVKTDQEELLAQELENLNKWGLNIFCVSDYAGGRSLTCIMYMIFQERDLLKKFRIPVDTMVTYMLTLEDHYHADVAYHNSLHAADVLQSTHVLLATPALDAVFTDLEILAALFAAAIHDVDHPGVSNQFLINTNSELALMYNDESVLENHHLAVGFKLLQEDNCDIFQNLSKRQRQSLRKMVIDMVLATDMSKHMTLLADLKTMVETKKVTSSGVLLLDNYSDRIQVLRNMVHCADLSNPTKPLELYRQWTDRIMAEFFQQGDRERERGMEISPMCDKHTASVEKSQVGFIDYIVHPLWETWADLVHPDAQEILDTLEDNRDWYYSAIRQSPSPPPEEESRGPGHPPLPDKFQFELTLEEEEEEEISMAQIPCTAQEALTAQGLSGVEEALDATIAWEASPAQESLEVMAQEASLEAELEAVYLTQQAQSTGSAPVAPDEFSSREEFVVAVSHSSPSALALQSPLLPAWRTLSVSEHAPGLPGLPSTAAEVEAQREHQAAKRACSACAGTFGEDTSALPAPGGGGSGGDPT

| Compound | IC50 [nM] |
| --- | --- |
| NS(=O)(=O)c1cccc(Sc2ccc(C(Cc3ccncc3)c3ccc(OC(F)F)c(OC(F)F)c3)cn2)c1 (centres unmarked) [Example 1, 4-{2-[3,4-Bis(difluoromethoxy)phenyl]-2-{6-[3-(aminosulfonyl)benzenethiol]3-pyridyl}ethyl}pyridine] | 5.45 |
| O=[N+]([O-])c1ccc(S(=O)(=O)c2ccc(C(Cc3cc[n+]([O-])cc3)c3ccc(OC(F)F)c(OC(F)F)c3)cn2)cc1 (centres unmarked) [Example 4, 4-{2-[3,4-Bis(difluoromethoxy)phenyl]-2-[6-(4-nitrobenzenesulfonyl)3-pyridyl]ethyl}pyridine-N-oxide] | 21.2 |
